In the NIST ThermoML archive (doi:10.1021/je034177v):

How the values were obtained:
[1] = molar heat capacity at constant pressure; details: 101 kPa, Liquid, Small sample (50 mg) DSC
[2] = 101 kPa, Liquid; for speed of sound: Pulse-echo method; for mass density: Vibrating tube method
[3] = xn = mol fraction of the nth substance listed; details: 101 kPa, Liquid, x2 = 0; for speed of sound: Pulse-echo method; for mass density: Vibrating tube method
[4] = molar heat capacity at constant pressure; xn = mol fraction of the nth substance listed; details: 101 kPa, Liquid, Small sample (50 mg) DSC, x2 = 0

CCCCCCCCCCCC [dodecane]
Details	mass density, [2] [kg/m3]	molar heat capacity at constant pressure, [1] [J/K/mol]	speed of sound, [2] [m/s]
278.15 K	759.56	–	1357
283.15 K	755.96	368.47	1337.4
288.15 K	752.36	370.48	1317.6
293.15 K	748.74	372.74	1298
298.15 K	745.14	375.04	1278.5
303.15 K	741.52	377.43	1259.2
308.15 K	737.88	380.02	1240
313.15 K	734.24	382.73	1221
318.15 K	730.6	385.48	1202.3
323.15 K	726.95	388.29	1183.6
328.15 K	723.29	–	1165.1

CCCCCCCCCCCC [dodecane] + ClCCCCCCCl
Details	mass density, [3] [kg/m3]	molar heat capacity at constant pressure, [4] [J/K/mol]	speed of sound, [3] [m/s]
278.15 K	759.56	–	1357
283.15 K	755.96	368.47	1337.4
288.15 K	752.36	370.48	1317.6
293.15 K	748.74	372.74	1298
298.15 K	745.14	375.04	1278.5
303.15 K	741.52	377.43	1259.2
308.15 K	737.88	380.02	1240
313.15 K	734.24	382.73	1221
318.15 K	730.6	385.48	1202.3
323.15 K	726.95	388.29	1183.6
328.15 K	723.29	–	1165.1

CCCCCCCCCCCC [dodecane] + ClCCCCCCl
Details	mass density, [3] [kg/m3]	molar heat capacity at constant pressure, [4] [J/K/mol]	speed of sound, [3] [m/s]
278.15 K	759.56	–	1357
283.15 K	755.96	368.47	1337.4
288.15 K	752.36	370.48	1317.6
293.15 K	748.74	372.74	1298
298.15 K	745.14	375.04	1278.5
303.15 K	741.52	377.43	1259.2
308.15 K	737.88	380.02	1240
313.15 K	734.24	382.73	1221
318.15 K	730.6	385.48	1202.3
323.15 K	726.95	388.29	1183.6
328.15 K	723.29	–	1165.1
